This experiment concerns P. falciparum K1 (strain resistant to chloroquine and pyrimethamine), erythrocytic stages. The experiment in a line: Plasmodium falciparum in vitro assay, [3H] hypoxanthine incorporation. To be noted: [3H] hypoxanthine incorporation, read-out: IC50 (nM) on K1. The experiment is classed as cell-based. The method, boiled down: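 Chloroquine/pyrimethamine-resistant K1 erythrocytic cultures (2.5% haematocrit, 0.3% parasitaemia, hypoxanthine-free RPMI with Albumax) exposed to seven doubling dilutions at 37 °C under low O2.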

The mark [1] stands for this setting: Plasmodium falciparum, K1, P. falciparum strain K1.

Where two headings read alike, the source gives them in different places.

On to `CN(CCN(C)C(=O)[C@H](Cc1ccccc1)N(Cc1ccc(N2CCOCC2)cc1)C(=O)C=Cc1ccc(C(F)(F)F)cc1)Cc1cccc(OCCO)c1` [Example 260, (S)-N-{1-[(2-{[3-(2-Hydroxy-ethoxy)-benzyl]-methyl-amino}-ethyl)-methyl-carbamoyl]-2-phenyl-ethyl}-N-(4-morpholin-4-yl-benzyl)-3-(4-trifluoromethyl-phenyl)-acrylamide], for which the IC50 – broadly, the point on the concentration scale where inhibition reaches its midpoint – under setting [1] was found to be 14 nM. Same read-out and setting: next, `CN(CCN(C)C(=O)[C@H](Cc1ccccc1)N(Cc1ccc(N2CCOCC2)cc1)C(=O)C=Cc1ccc(C(F)(F)F)cc1)Cc1cccc(C#N)c1` [Example 261, (S)-N-[1-({2-[(3-Cyano-benzyl)-methyl-amino]-ethyl}-methyl-carbamoyl)-2-phenyl-ethyl]-N-(4-morpholin-4-yl-benzyl)-3-(4-trifluoromethyl-phenyl)-acrylamide]: 48 nM; `CC(C)Oc1ccc(CN(C)CCN(C)C(=O)[C@H](Cc2ccccc2)N(Cc2ccc(N3CCOCC3)cc2)C(=O)C=Cc2ccc(C(F)(F)F)cc2)cc1` [Example 262, (S)-N-[1-({2-[(4-Isopropoxy-benzyl)-methyl-amino]-ethyl}-methyl-carbamoyl)-2-phenyl-ethyl]-N-(4-morpholin-4-yl-benzyl)-3-(4-trifluoromethyl-phenyl)-acrylamide]: 17 nM.

Turning to `CN(CCN(C)C(=O)[C@H](Cc1ccccc1)N(Cc1ccc(N2CCOCC2)cc1)C(=O)C=Cc1ccc(C(F)(F)F)cc1)Cc1ccc2c(c1)OCCN2C` [Example 263, (S)-N-[1-(Methyl-{2-[methyl-(4-methyl-3,4-dihydro-2H-benzo[1,4]oxazin-7-ylmethyl)-amino]-ethyl}-carbamoyl)-2-phenyl-ethyl]-N-(4-morpholin-4-yl-benzyl)-3-(4-trifluoromethyl-phenyl)-acrylamide], the IC50 under setting [1] came to 72 nM. On the same count and under the same terms, next, `COc1ccc(CN(C)CCN(C)C(=O)[C@H](Cc2ccccc2)N(Cc2ccc(N3CCOCC3)cc2)C(=O)C=Cc2ccc(C(F)(F)F)cc2)cn1` [Example 264, (S)-N-[1-({2-[(6-Methoxy-pyridin-3-ylmethyl)-methyl-amino]-ethyl}-methyl-carbamoyl)-2-phenyl-ethyl]-N-(4-morpholin-4-yl-benzyl)-3-(4-trifluoromethyl-phenyl)-acrylamide]: 39 nM. Still for that read-out and setting: next, `CN(CCN(C)C(=O)[C@H](Cc1ccccc1)N(Cc1ccc(N2CCOCC2)cc1)C(=O)C=Cc1ccc(C(F)(F)F)cc1)Cc1nccs1` [Example 265, (S)-N-(1-{Methyl-[2-(methyl-thiazol-2-ylmethyl-amino)-ethyl]-carbamoyl}-2-phenyl-ethyl)-N-(4-morpholin-4-yl-benzyl)-3-(4-trifluoromethyl-phenyl)-acrylamide]: 36 nM; `CN(CCN(C)C(=O)[C@H](Cc1ccccc1)N(Cc1ccc(N2CCOCC2)cc1)C(=O)C=Cc1ccc(C(F)(F)F)cc1)Cc1ccc2c(c1)OCO2` [Example 266, (S)-N-(1-{[2-(Benzo[1,3]dioxol-5-ylmethyl-methyl-amino)-ethyl]-methyl-carbamoyl}-2-phenyl-ethyl)-N-(4-morpholin-4-yl-benzyl)-3-(4-trifluoromethyl-phenyl)-acrylamide]: 58 nM.

Turning to `CN(CCN(C)C(=O)[C@H](Cc1ccccc1)N(Cc1ccc(N2CCOCC2)cc1)C(=O)C=Cc1ccc(C(F)(F)F)cc1)Cc1cncnc1` [Example 267, (S)-N-(1-{Methyl-[2-(methyl-pyrimidin-5-ylmethyl-amino)-ethyl]-carbamoyl}-2-phenyl-ethyl)-N-(4-morpholin-4-yl-benzyl)-3-(4-trifluoromethyl-phenyl)-acrylamide], under setting [1], the IC50 came out at 40 nM. Still for that read-out and setting: next, `Cc1ccc(CN(C)CCN(C)C(=O)[C@H](Cc2ccccc2)N(Cc2ccc(N3CCOCC3)cc2)C(=O)C=Cc2ccc(C(F)(F)F)cc2)c(F)c1F` [Example 268, (S)-N-[1-({2-[(2,3-Difluoro-4-methyl-benzyl)-methyl-amino]-ethyl}-methyl-carbamoyl)-2-phenyl-ethyl]-N-(4-morpholin-4-yl-benzyl)-3-(4-trifluoromethyl-phenyl)-acrylamide]: 80 nM; `CN(CCN(C)C(=O)[C@H](Cc1ccccc1)N(Cc1ccc(N2CCOCC2)cc1)C(=O)C=Cc1ccc(C(F)(F)F)cc1)Cc1cnc[nH]1` [Example 269, (S)-N-[1-({2-[(3H-Imidazol-4-ylmethyl)-methyl-amino]-ethyl}-methyl-carbamoyl)-2-phenyl-ethyl]-N-(4-morpholin-4-yl-benzyl)-3-(4-trifluoromethyl-phenyl)-acrylamide]: 63 nM.

For the compound `CN(CCN(C)C(=O)[C@H](Cc1ccccc1)N(Cc1ccc(N2CCOCC2)cc1)C(=O)C=Cc1ccc(C(F)(F)F)cc1)Cc1ccncc1` [Example 270, (S)-N-(1-{Methyl-[2-(methyl-pyridin-4-ylmethyl-amino)-ethyl]-carbamoyl}-2-phenyl-ethyl)-N-(4-morpholin-4-yl-benzyl)-3-(4-trifluoromethyl-phenyl)-acrylamide], the IC50 under setting [1] turned out to be 25 nM. The same measure, in the same setting: next, `CC(=O)Nc1ccc(CN(C)C(=O)[C@H](Cc2ccccc2)N(Cc2ccc(N3CCOCC3)cc2)C(=O)C=Cc2ccc(C(F)(F)F)nc2)cc1` [Example 271]: 100 nM. `CN(Cc1ccc(N2CCCC2=O)cc1)C(=O)[C@H](Cc1ccccc1)N(Cc1ccc(N2CCOCC2)cc1)C(=O)C=Cc1ccc(C(F)(F)F)nc1` [Example 272]: under setting [1], the concentration for half-maximal inhibition (IC50) turned out to be 80 nM. In the case of `CN(Cc1ccc(NC(=O)C2CC2)cc1)C(=O)[C@H](Cc1ccccc1)N(Cc1ccc(N2CCOCC2)cc1)C(=O)C=Cc1ccc(C(F)(F)F)nc1` [Example 273, (S)-Cyclopropanecarboxylic acid (4-{[methyl-(2-{(4-morpholin-4-yl-benzyl)-[3-(6-trifluoromethyl-pyridin-3-yl)-acryloyl]-amino}-3-phenyl-propionyl)-amino]-methyl}-phenyl)-amide], the half-maximal inhibitory concentration (IC50) under setting [1] is 75 nM.

In the case of `CN(Cc1ccc(N2CCCCC2=O)cc1)C(=O)[C@H](Cc1ccccc1)N(Cc1ccc(N2CCOCC2)cc1)C(=O)C=Cc1ccc(C(F)(F)F)nc1` [Example 274], under setting [1], the IC50 is 63 nM.

Take `CN(Cc1ccc(NC(=O)c2ccccc2)cc1)C(=O)[C@H](Cc1ccccc1)N(Cc1ccc(N2CCOCC2)cc1)C(=O)C=Cc1ccc(C(F)(F)F)nc1` [Example 275, (S)-N-(4-{[Methyl-(2-{(4-morpholin-4-yl-benzyl)-[3-(6-trifluoromethyl-pyridin-3-yl)-acryloyl]-amino}-3-phenyl-propionyl)-amino]-methyl}-phenyl)-benzamide]: under setting [1], the IC50 came to 59 nM. For the compound `CC(=O)N(c1ccccc1)c1ccc(CN(C)C(=O)[C@H](Cc2ccccc2)N(Cc2ccc(N3CCOCC3)cc2)C(=O)C=Cc2ccc(C(F)(F)F)nc2)cc1` [Example 276], the half-inhibitory concentration (IC50) under setting [1] came out at 65 nM. On the same count and under the same terms, next, `COCCNc1ccc(CN(C)C(=O)[C@H](Cc2ccccc2)N(Cc2ccc(N3CCOCC3)cc2)C(=O)C=Cc2ccc(C(F)(F)F)nc2)cc1` [Example 277]: 47 nM. On to “(S)-N-[1-Benzyl-2-oxo-2-(4-phenyl-piperidin-1-yl)-ethyl]-N-(4-pyrimidin-5-yl-benzyl)-3-(6-trifluoromethyl-pyridin-3-yl)-acrylamide [Example 49]”, for which, for the setting “P. falciparum strain K1”, the 50% inhibitory concentration (IC50) came out at 43 nM.

These data come from patent US20110224210A1, “NOVEL BIS-AMIDES AS ANTI-MALARIAL AGENTS” (priority 2008, published 2011).
